# Data reported in patent US6596702B2, “Compositions for use in rehydration and nutrition during athletic exercise and methods of making same” (Elan Drug Delivery Limited, priority 1994, dated 2003).
# Legend:
# [1] = Blood glucose levels with trehalose as carbohydrate source in a sports beverage; type: in vivo; details: trehalose as primary carbohydrate source in sports beverages
# [2] = Osmolarity of aqueous trehalose solution (Roebling Micro-Osmometer); type: physicochemical
# Experimental: 5.0 to 11.34 g of trehalose dihydrate is dry blended at an rpm greater than 18,000 until the consistency of is a uniform powder. Thereafter, the trehalose dihydrate is dissolved in distilled deionized water to a final volume of 100 mL and an osmolarity of 300 mOsm or less. For 11.34 g of trehalose the measured value was 287 mOsm. Measurement of the osmolarity of the final mixture is made on a Roebling Micro-Osmometer.
# [3] = Tolerability of trehalose; type: in vivo; details: humans
structure (smiles),measurement,setting,value
"OC[C@H]1O[C@H](O[C@H]2O[C@H](CO)[C@@H](O)[C@H](O)[C@H]2O)[C@H](O)[C@@H](O)[C@@H]1O [trehalose, α-D-glucopyranosyl-α-D-glucopyranoside]",blood glucose levels over that of glucose alone,[1],two-fold
same,osmolarity,[2]; 1 molar solution of trehalose,1665 mOsm
same,"osmolarity, measured value",[2]; 11.34 g trehalose dihydrate dissolved in distilled deionized water to a final volume of 100 mL,287 mOsm
same,osmolarity,"[2]; 11.34 g trehalose dihydrate in distilled deionized water, final volume 100 mL, stated isotonic value",300 mOsm
same,tolerability,[3],well tolerated
